Assay results from patent US20230322724A1, “HETEROCYCLIC COMPOUNDS AS CBP/EP300 BROMODOMAIN INHIBITORS” (AURIGENE ONCOLOGY LIMITED, priority 2020, published 2023).

Assays:
Format in all cases: binding
[1] = target: T1, recombinant CREBBP bromodomain (Homo sapiens, UniProt Q92793); assay: CBP TR-FRET displacement assay; details: for inhibition at 10 µM: compound at 10 μM; for IC50: dose-response, read-out: IC50 (group A, B, C)
T1 construct: recombinant CREBBP bromodomain obtained from BPS Bioscience, USA; purchased BPS Bioscience, USA
T1 sequence (Q92793 1085-1192 limits assumed): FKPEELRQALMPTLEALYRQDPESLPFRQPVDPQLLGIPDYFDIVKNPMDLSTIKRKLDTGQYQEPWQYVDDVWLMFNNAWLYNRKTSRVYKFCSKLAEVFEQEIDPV
Procedure, shortened: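 CREBBP bromodomain (50 nM) preincubated 30 min at room temperature with 500 nM biotinylated ligand in HEPES pH 7.5 buffer with TCEP, then 60 min with compound. Eu-anti-His/APC-streptavidin TR-FRET 665/615 nm ratio read; IC50 from sigmoidal dose-response fit.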

[2] = target: T2, recombinant BRD4 FL bromodomain (Homo sapiens, UniProt O60885); assay: BRD4 FL TR-FRET displacement assay; details: BRD4 FL; for IC50: dose-response, read-out: IC50 (group A, B, C); for inhibition at 10 µM: compound at 10 μM, read-out: % Inhibition (10 μM)
T2 construct: fused on or other part: 6xHis tag, inferred from detection with Mab ANTI 6HIS-XL665
Procedure, shortened: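 Recombinant BRD4 FL (10 nM) pre-incubated 30 min at room temperature with 300 nM biotinylated acetyl-histone H4 (K5/8/12/16) in 50 mM HEPES pH 7.5, 50 mM NaCl, 500 μM CHAPS, then added to compounds for 30 min. Stopped with Eu-streptavidin/anti-6His-XL665 in KF; 665/615 nm ratio fitted sigmoidally for IC50.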

[3] = target: T3, recombinant P300 bromodomain (Homo sapiens, UniProt Q09472); assay: P300 TR-FRET displacement assay; details: dose-response, read-out: IC50 (group A, B, C)
T3 construct: recombinant P300 bromodomain obtained from BPS Bioscience, USA; purchased BPS Bioscience, USA
T3 sequence (Q09472 1049-1156 limits assumed): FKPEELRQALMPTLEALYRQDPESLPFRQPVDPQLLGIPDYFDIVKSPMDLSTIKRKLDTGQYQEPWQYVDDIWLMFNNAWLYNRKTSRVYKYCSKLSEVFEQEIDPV
Method: The potency of compounds to inhibit P300 enzyme was tested in a TR-FRET displacement assay using recombinant P300 bromodomain obtained from BPS Bioscience, USA. The assay buffer was 50 mM HEPES (pH 7.5), 50 mM NaCl, 0.008% Brij 35, 0.01% BSA, 1 mM TCEP. 50 nM of P300 & 500 nM of Biotinylated ligand was incubated at room temperature for 30 minutes, the reaction was initiated by adding the pre-incubated enzyme ligand mixture to the test compounds. After 60 min incubation, the reaction was stopped by the addition of stop mix containing 1 nM of LANCE Europium-anti-6xHis antibody (Perkin Elmer, USA) and 40 nM of Sure Light Allophycocyanin-Streptavidin (Perkin Elmer, USA). Fluorescence emission of the samples at 665 and 615 nm were measured at an excitation of 340 nm and their ratio was plotted against the compound concentrations to generate dose-response curve.
Selected compounds of the present invention were screened in the above-mentioned assay procedures and IC50 values were determined by fitting the dose-response data to sigmoidal curve fitting equation using Graph pad prism software V7.

| SMILES | inhibition at 10 µM [1] | IC50 [1] | IC50 [2] | IC50 [3] | inhibition at 10 µM [2] |
| --- | --- | --- | --- | --- | --- |
| Cc1cc2c(N3CCN(C)c4cc(-c5cnn(C)c5)ccc43)cccc2[nH]c1=O [Example 6] | 100% | > 10 nM | 2.01 to 5 µM | > 50000 nM | – |
| COc1cc(N2CCN(C)c3cc(-c4cnn(C)c4)c(C#N)cc32)c2cc(C)c(=O)[nH]c2c1 [Example 7] | 90% | < 50 nM | – | > 50000 nM | 77% |
| Cc1cc2c(N3CCN(C)c4cc(-c5cnn(C)c5)c(C#N)cc43)cccc2n(C)c1=O [Example 42] | 96% | < 50 nM | – | 25 to 50 nM | 81% |
| COc1cc(N2CCN(C)c3cc(C(=O)O)c(C#N)cc32)c2cc(C)c(=O)n(C)c2c1 [Example 68, 7-cyano-1-(7-methoxy-1,3-dimethyl-2-oxo-1,2-dihydroquinolin-5-yl)-4-methyl-1,2,3,4-tetrahydroquinoxaline-6-carboxylic acid] | – | < 50 nM | 2.01 to 5 µM | 25 to 50 nM | – |
| CNC(=O)c1cc2c(cc1C#N)N(c1cc(OC)cc3c1cc(C)c(=O)n3C)CCN2C [Example 69, 7-cyano-1-(7-methoxy-1,3-dimethyl-2-oxo-1,2-dihydroquinolin-5-yl)-N,4-dimethyl-1,2,3,4-tetrahydroquinoxaline-6-carboxamide] | – | < 50 nM | – | < 25 nM | 39% |
| CN1CCN(c2cccc3c2cc(N)c(=O)n3C)c2cc(C#N)c(-c3cnn(C)c3)cc21 [Example 77, 4-(3-Amino-1-methyl-2-oxo-1,2-dihydroquinolin-5-yl)-1-methyl-7-(1-methyl-1H-pyrazol-4-yl)-1,2,3,4-tetrahydroquinoxaline-6-carbonitrile] | – | > 10 nM | 2.01 to 5 µM | > 50000 nM | – |
| COc1cc(N2CCN(C)c3cc(F)c(S(N)(=O)=O)cc32)c2cc(C)c(=O)n(C)c2c1 [Example 86] | – | < 50 nM | 2.01 to 5 µM | 25 to 50 nM | – |
| COc1cc(N2CCN(C)c3ccc(S(N)(=O)=O)cc32)c2cc(C)c(=O)n(C)c2c1 [Example 94] | – | < 50 nM | 2.01 to 5 µM | < 25 nM | – |
| Cc1cc2c(N3CCCc4cc(-c5cnn(C)c5)c(C(F)F)cc43)cncc2n(C)c1=O [Example 180] | – | 51 to 100 nM | 2.01 to 5 µM | < 25 nM | – |
| CNC(=O)C1CCN(c2cc3c(cc(C)c(=O)n3C)c(N3CCCc4cc(-c5cnn(C)c5)c(C(F)F)cc43)n2)C1 (centres unmarked) [Example 201, 1-(5-(7-(Difluoromethyl)-6-(1-methyl-1H-pyrazol-4-yl)-3,4-dihydroquinolin-1(2H)-yl)-1,3-dimethyl-2-oxo-1,2-dihydro-1,6-naphthyridin-7-yl)-N-methylpyrrolidine-3-carboxamide] | – | < 50 nM | – | < 25 nM | – |
| Cc1cc2c(N3CCCc4cc(-c5cnn(C)c5)c(C(F)F)cc43)nc(N3CC[C@@H](O)C3)cc2n(C)c1=O [Example 209] | – | < 50 nM | – | < 25 nM | – |
| Cc1cc2c(N3CCCc4cc(-c5cnn(C)c5)c(C(F)F)cc43)nc(N3CC[C@H](O)C3)cc2n(C)c1=O [Example 210] | – | < 50 nM | – | 25 to 50 nM | – |
| CNC(=O)[C@@H]1CCN(c2cc3c(cc(C)c(=O)n3C)c(N3CCCc4cc(-c5cnn(C)c5)c(C(F)F)cc43)n2)C1 [Example 211] | – | < 50 nM | – | < 25 nM | – |
| CNC(=O)[C@H]1CCN(c2cc3c(cc(C)c(=O)n3C)c(N3CCCc4cc(-c5cnn(C)c5)c(C(F)F)cc43)n2)C1 [Example 212] | – | < 50 nM | – | < 25 nM | – |
| Cc1cc2c(N3CCCc4cc(-c5cnn(C)c5)c(C(F)F)cc43)nc(N3C[C@@H](O)[C@H](O)C3)cc2n(C)c1=O [Example 215] | – | < 50 nM | – | < 25 nM | – |
| Cc1cc2c(N3CCCc4cc(-c5cnn(C)c5)c(C(F)F)cc43)nc(N3CC4(COC4)C3)cc2n(C)c1=O [Example 224] | – | < 50 nM | – | > 50000 nM | – |
| Cc1cc2c(N3CCCc4cc(-c5cnn(C)c5)c(C(F)F)cc43)nc(N3CCC4(COC4)C3)cc2n(C)c1=O [Example 225] | – | < 50 nM | – | 25 to 50 nM | – |
| Cc1cc2c(N3CCCc4cc(-c5cnn(C)c5)c(C(F)F)cc43)nc(N3CCOCC3)cc2n(C)c1=O [Example 234, 5-(7-(Difluoromethyl)-6-(1-methyl-1H-pyrazol-4-yl)-3,4-dihydroquinolin-1(2H)-yl)-1,3-dimethyl-7-morpholino-1,6-naphthyridin-2(1H)-one] | – | < 50 nM | – | < 25 nM | – |
| Cc1cc2c(N3CCCc4cc(-c5cnn(C)c5)c(C(F)F)cc43)nc(C3CCOCC3)cc2n(C)c1=O [Example 242, 5-(7-(Difluoromethyl)-6-(1-methyl-1H-pyrazol-4-yl)-3,4-dihydroquinolin-1(2H)-yl)-1,3-dimethyl-7-(tetrahydro-2H-pyran-4-yl)-1,6-naphthyridin-2(1H)-one] | – | < 50 nM | – | < 25 nM | – |
